Values after ≈ are worked out from the molar mass of the structure shown.
What was measured:
S. aureus = test: MIC against S. aureus strains; assay type: cell-based; settings: S. aureus ATCC 29213, 24 h
C. difficile ATCC 43255 = test: Determination of minimal-inhibitory concentrations (microdilution), C. difficile ATCC 43255; assay type: cell-based, Clostridioides difficile; settings: for MIC (μg/mL) 48 h: C. difficile ATCC 43255, 48-h incubation; for MIC (μg/mL) 24 h: C. difficile ATCC 43255, 24 h

| Compound | MIC (μg/mL) 24 h (S. aureus) | MIC (μg/mL) 48 h (C. difficile ATCC 43255) | MIC (μg/mL) 24 h (C. difficile ATCC 43255) |
| --- | --- | --- | --- |
| FC(F)(F)c1ccc(Oc2ccc(-c3noc(-c4n[nH]cc4Cl)n3)cc2)cc1 [Compound 26] | 1 µg/mL (≈ 2.46 µM) | >128 µg/mL | >128 µg/mL |
| FC(F)(F)c1ccc(Oc2ccc(-c3noc(-c4n[nH]cc4Br)n3)cc2)cc1 [Compound 27] | 1 µg/mL (≈ 2.22 µM) | >128 µg/mL | >128 µg/mL |
| FC(F)(F)c1ccc(Oc2ccc(-c3noc(-c4n[nH]cc4I)n3)cc2)cc1 [Compound 28] | 2 µg/mL (≈ 4.01 µM) | 128 µg/mL (≈ 257 µM) | 128 µg/mL (≈ 257 µM) |
| OCC#Cc1c[nH]nc1-c1nc(-c2ccc(Oc3ccc(C(F)(F)F)cc3)cc2)no1 [Compound 29] | 4 µg/mL (≈ 9.38 µM) | >128 µg/mL | >128 µg/mL |
| O=C1C[C@H](c2nc(-c3ccc(Oc4ccc(C(F)(F)F)cc4)cc3)no2)CN1 [Compound 31] | >128 µg/mL | >128 µg/mL | >128 µg/mL |

— patent US20260125371A1, “METHOD FOR INHIBITING CLOSTRIDIOIDES DIFFICILE SPORE GERMINATION” (UNIVERSITY OF NOTRE DAME DU LAC, priority 2022, published 2026)
